Reference: patent publication US20230255955A1, “AMELIORATING AGENT OR PROPHYLACTIC AGENT FOR MUSCLE WEAKNESS SYMPTOM IN DISEASE OR SYNDROME ASSOCIATED WITH METABOLIC DISORDER” (Toray Industries, Inc., priority 2020, published 2023)
Counter-ions that a name gives are not always drawn.

Assays:
cancer cachexia patients = conditions: cited from earlier work
[1] = system: malignant tumor model animals obtained by transplanting A549 cells to nude mice; test: Gripping force of the forelimb (grip test activity meter) in malignant tumor model; assay type: in vivo, mouse; conditions: oral, every day for 28 days, 0.125 mg/kg and 0.25 mg/kg (both doses), 28th day
Protocol: (§1) On malignant tumor model animals obtained by transplanting A549 cells, adenocarcinomic human alveolar basal epithelial cells, to nude mice, an ameliorating action on a muscle weakness by administering (−)-17-(cyclopropylmethyl)-3,14β-dihydroxy-4,5α-epoxy-6β-[N-methyl-trans-3-(3-furyl)acrylamide]morphinan hydrochloride (hereinafter, compound 1) produced in accordance with International Publication No. WO 93/015081 was evaluated. […] For this reason, an evaluation of an ameliorating effect and a prophylactic effect on the muscle weakness symptom is considered to be possible.
(§2) A549 cell subculture was carried out using 10% FBS-containing RPMI 1640 medium. For an evaluation of drug efficacy, 7-week old female BALB/C slc/nu/nu mice (Japan SLC, Inc.) were purchased, acclimated for 1 week and then used. The malignant tumor model animal was created as follows. […] The tumor volume was determined by measuring a tumor diameter using a digital vernier caliper by the following calculating formula. […]
(§3) 43rd to 70th days from cell transplantation, compound 1 was orally administered every day to the malignant tumor model animals for 28 days. […] Using a grip test activity meter (Muromachi Kikai Co., Ltd.), a muscle strength was evaluated by measuring a gripping force of the forelimb on 28th day after starting administration of compound 1 (last day of the administration). […]

A549 cells = test: Tumor volume in malignant tumor model (A549 cells transplanted to nude mice); assay type: in vivo, mouse; conditions: oral, every day for 28 days, 0.125 mg/kg and 0.25 mg/kg (both doses); tumor volume on 28th day; vs distilled water administered group
Protocol: as §1, §2, §3

SAMP8 mice = test: Gripping force of the forelimb (grip test activity meter) in senescence-accelerated model; assay type: in vivo, mouse; conditions: oral, every day for 28 days, 0.125 mg/kg and 0.25 mg/kg (both doses), 28th day, vs distilled water administered group, Williams' test P<0.05
Protocol: as §1, with “senescence-accelerated models, SAMP8” for “malignant tumor model animals obtained by transplanting A549 cells, adenocarcinomic human alveolar basal epithelial cells, to nude”, “(compound” for “(hereinafter, compound”
For the evaluation of drug efficacy, 7-week old male SAMP8/TaSlc mice (Japan SLC, Inc.) were purchased, then kept for 9 months and used for the test. For the total of 3 days from 3 days to 1 day before administration of the test substance, a gripping force of the forelimb was measured using a grip test activity meter, an average value of the 3 days was calculated, and then the mice were grouped in such a way that the average of muscle strengths in each group was equal. To clarify that the model is a muscle weakness model, a control of a senescence-accelerated model animal was set. […]
Compound 1 was orally administered to SAMP8 mice every day for 28 days. […] Using a grip test activity meter, the muscle strength was evaluated by measuring a gripping force of the forelimb on 28th day after starting administration of compound 1 (last day of the administration). […]

SMILES	ameliorating action on a muscle weakness symptom (physical function) (cancer cachexia patients)	lean body mass (cancer cachexia patients)	gripping force (muscle strength) compared with the model control group [1]	increasing action on the gripping force (muscle strength) ([1]; vs distilled water administered group, Dunnett's test P<0.05)	suppressing action on the tumor volume increase (A549 cells)	increasing action on the gripping force (muscle strength) (SAMP8 mice)
CN(C)N(C)C(=O)[C@@]1(Cc2ccccc2)CCCN(C(=O)[C@@H](Cc2c[nH]c3ccccc23)NC(=O)C(C)(C)N)C1 [Anamorelin]	does not show an ameliorating action on a muscle weakness symptom	increases a lean body mass	–	–	–	–
CN(C(=O)/C=C/c1ccoc1)[C@@H]1CC[C@@]2(O)[C@H]3Cc4ccc(O)c5c4[C@@]2(CCN3CC2CC2)[C@H]1O5 [compound 1, (−)-17-(cyclopropylmethyl)-3,14β-dihydroxy-4,5α-epoxy-6β-[N-methyl-trans-3-(3-furyl)acrylamide]morphinan hydrochloride]	–	–	ameliorated to the extent that is equal to the gripping force (muscle strength) of the model control group	statistically remarkable increasing action on the gripping force (muscle strength)	did not show any suppressing action on the tumor volume increase	statistically remarkable increasing action on the gripping force (muscle strength)
C[C@](O)(COc1ccc(C#N)cc1)C(=O)Nc1ccc(C#N)c(C(F)(F)F)c1 [enobosarm]	the effect thereof is not acknowledged	increases a lean body mass	–	–	–	–
